Measured values from PubChem BioAssay (NCI).
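Growth conditions: 96-well plates. Treatment: test compound, 48 hours, 5 concentrations. Analysis: linear interpolation between bracketing concentrations; unreached endpoints set to highest concentration. Here, GI50 denotes the concentration required for 50% inhibition of growth. TGI denotes the concentration required for complete inhibition of growth.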

Columns and labels:
Assay in all cases: NCI tumour cell line growth inhibition, 48 h
[1] = tested on: A549 NSCLC
[2] = tested on: ACHN renal
[3] = tested on: HCT-15 colon
[4] = tested on: IGROV1 ovarian
[5] = tested on: NCI-H23 lung
[6] = tested on: NCI-H522 lung
[7] = tested on: OVCAR-5 ovarian
[8] = tested on: OVCAR-8 ovarian
[9] = tested on: RPMI-8226 leukemia
[10] = tested on: RXF 393 renal
[11] = tested on: SF-539 CNS
[12] = tested on: SN12C renal
[13] = tested on: SNB-75 CNS
[14] = tested on: T-47D breast
[15] = tested on: UACC-257 melanoma

Compound	TGI [1] [µM]	TGI [2] [µM]	TGI [3] [µM]	TGI [4] [µM]	TGI [5] [µM]	TGI [6] [µM]	TGI [7] [µM]	TGI [8] [µM]	TGI [9] [µM]	TGI [10] [µM]	TGI [11] [µM]	TGI [12] [µM]	TGI [13] [µM]	TGI [14] [µM]	TGI [15] [µM]	GI50 [6] [µM]
COc1cc2cccc(N)c2cc1OC	> 100	> 100	> 100	> 100	> 100	> 100	> 100	> 100	> 100	> 100	> 100	> 100	> 100	> 100	> 100	–
CCCCC(Sc1cc(Cl)c(C)cc1S(=O)(=O)Nc1n[nH]c(N)n1)C(=O)OC (stereo unspecified)	> 10	> 10	> 10	> 10	> 10	> 10	> 10	> 10	> 10	> 10	> 10	> 10	> 10	> 10	> 10	–
O=C(Nc1ccccc1)N(C1=NCC(CI)S1)c1ccc(F)cc1F (stereo unspecified)	> 100	> 100	> 100	52	> 100	> 100	> 100	> 100	> 100	> 100	> 100	> 100	> 100	> 100	84	–
CO/N=C(\C(=O)N(C)n1cnnc1)c1csc(NC(c2ccccc2)(c2ccccc2)c2ccccc2)n1	> 10	> 10	> 10	> 10	> 10	> 10	> 10	> 10	> 10	> 10	> 10	> 10	> 10	> 10	> 10	–
CCOC(=O)C(C)NC(=O)C(C)NC(=O)C(C)NC(=O)C(C)NC(=O)C(C)NC(=O)OCc1ccccc1 (stereo unspecified)	> 100	> 100	> 100	> 100	> 100	> 100	> 100	> 100	> 100	> 100	> 100	> 100	> 100	> 100	> 100	–
CCCCCCCCCCCCCCCCOCC(Cl)COP(=O)(O)OP(=O)(O)OCC1OC(n2cc(C)c(=O)[nH]c2=O)CC1O (stereo unspecified)	> 100	> 100	> 100	> 100	> 100	> 100	> 100	> 100	> 100	> 100	> 100	> 100	71.8	> 100	> 100	–
Cc1ccc(-c2cc(C(F)(F)F)nn2-c2ccc(S(N)(=O)=O)cc2)cc1	> 52.6	> 56	> 56.6	> 54.6	37.7	77.6	> 59.8	> 62.8	29.9	36	> 59.4	42.1	> 53.8	> 61.8	> 58.3	19.9
c1ccc([P+](Cc2ccccc2C[P+](c2ccccc2)(c2ccccc2)c2ccccc2)(c2ccccc2)c2ccccc2)cc1	> 100	> 100	> 100	> 100	> 100	> 100	> 100	> 100	> 100	> 100	> 100	> 100	> 100	> 100	> 100	–
CCOc1ccc(N/C(Cl)=C(Cl)\C(=C(\Nc2ccc(OCC)cc2)n2nnc3ccccc32)[N+](=O)[O-])cc1	66.8	15.1	7.4	5.33	22.3	2.86	27	3.46	> 30.5	5.39	11.1	23.3	42.5	29.1	28.6	–
O=C(CSc1nc2[nH]ncc2c(=O)[nH]1)c1ccc(Cl)cc1	> 100	> 100	> 100	> 100	> 100	> 100	> 100	> 100	> 100	> 100	> 100	> 100	> 100	> 100	> 100	–
Cc1nnc2sc(NN)nn12	> 100	> 100	> 100	> 100	> 100	> 100	> 100	> 100	> 100	> 100	> 100	> 100	> 100	> 100	> 100	–
Clc1cc(Cl)cc(C2ON=C(c3ccccc3)N2C23CC4CC(CC(C4)C2)C3)c1 (stereo unspecified)	> 10	> 10	> 10	> 10	> 10	> 10	> 10	> 10	> 10	> 10	> 10	> 10	> 10	> 10	> 10	–
Cc1nc(N/N=C/c2ccccc2Cl)[nH]c(=O)c1CCO	> 100	> 100	> 100	> 100	> 100	34.4	> 100	51.7	> 100	69.9	> 100	> 100	41.4	> 100	> 100	–
CCC[C@H](NS(=O)c1ccc(C)cc1)C(C(=O)OCC)=C(c1ccccc1)c1ccccc1 (stereo partly specified)	96.9	60.8	> 100	75.8	96	55.1	43.4	97.4	55.8	29.6	48.5	41.7	54.2	88.6	33.5	–
CC(SC(=S)N1CCOCC1)C(=O)Nc1nnc(-c2ccccc2)o1 (stereo unspecified)	> 100	> 100	> 100	> 100	> 100	> 100	> 100	> 100	> 100	> 100	> 100	> 100	> 100	> 100	> 100	–
CC(NC(=O)c1ccccc1)NC(=O)C(C)C(=O)Nc1ccccc1 (stereo unspecified)	> 100	> 100	> 100	> 100	> 100	> 100	> 100	> 100	> 100	> 100	> 100	> 100	> 100	> 100	> 100	–
O=c1oc2ccccc2c(O)c1/C=N/C(=S)NCCc1ccccc1	> 100	> 85.6	> 100	> 100	> 88	87.4	> 100	> 100	89.3	> 100	> 71.1	> 100	> 87.5	> 100	> 100	–
COC(=O)c1c(O)ccc2c1c1c(n2Cc2ccc(Cl)cc2Cl)C(=O)c2ccccc2C1=O	19.3	20.4	18.5	26.9	24.8	22	42.9	21.4	13.5	19.7	27.7	5.62	32.3	13.7	30.1	–
CN(C)P(=O)(Oc1ccc(CC(NC(=O)OCc2ccccc2)C(=O)OCc2ccccc2)cc1)N(C)C (stereo unspecified)	38.2	33.9	33	32.9	28.1	30.9	38.6	33.2	15.2	32.7	39.7	31.8	33.3	52.3	47.5	–
Cc1cc(S(=O)(=O)Nc2cc(N)[nH]n2)c(SCc2nc(N)nc(N(C)C)n2)cc1Cl	> 10	> 10	> 10	> 10	> 10	> 10	> 10	> 10	> 10	> 10	> 10	> 10	> 10	> 10	> 10	–
CC(=O)O[C@H]1/C(=C/c2ccncc2)C[C@H]2[C@@H]3CC=C4C[C@@H](N5CCCC5)CC[C@]4(C)[C@H]3CC[C@]12C	26.8	27.7	24.7	27.1	30.7	34.9	27.2	28.2	23.4	20.4	35	30.8	28.3	29.3	6.42	–
O=c1[nH]nc(Cc2ccccc2)n1/N=C\c1ccccc1	> 100	> 100	> 100	> 100	> 100	> 100	> 100	> 100	> 100	> 100	> 100	> 100	> 100	> 100	> 100	–
NCCN1C(=O)CN=C(c2ccc(Cl)cc2)c2cc(Cl)ccc21	32.2	33	34.7	27.1	37.1	37.3	30.9	32.2	36.4	24.5	34.1	62.9	30.7	59.3	34.9	–
